From patent publication US20240109896A1, “FGFR KINASE INHIBITOR AND USE THEREOF” (YA THERAPEUTICS INC, priority 2021, published 2024)
Read-outs that look alike come from different tables or passages of the source.

Tests used:
[1] = system: human gastric cancer cells (SNU-16); test: Proliferation inhibition of human gastric cancer cells SNU-16 (CellTiter-Glo); type: cell-based; settings: 72 h, SNU-16, 3 days
Method: (§1) Using the CellTiter-Glo<TM>Live Cell Assay Kit, The inhibitory effect of the test compound on the proliferation of human gastric cancer cells (SNU-16) and FGFR3 high expression and FGFR3 fusion of FGFR3-TACC3 fused human bladder cancer cells (RT4) was determined. Among them, RT4 medium is added with fetal bovine serum and McCoy's 5A medium with a final concentration of 10%.
(§2) Test steps: SNU-16 and RT4 cells that have reached 80% cell confluency were digested by trypsin, centrifuged and re-suspended for counting, and 3500 and 6000 cells/mL of SNU-16 and RT4 cell suspensions were prepared with medium, respectively. Add a 96-well cell culture plate (90 μL/well) and place in a cell culture incubator containing 5% CO2 at 37° C. […] The diluted compound stock solution was further diluted with SNU-16 and RT4 medium and the diluted mixture was transferred to the corresponding cell plates, respectively. […] Mix and centrifuge and then place in a cell culture incubator containing 5% CO2 for 3 days at 37° C. Take out the 96-well cell culture plate and add CellTiterGlo (CTG, Chemiluminescent Cell Viability Assay) reagent (100 L/well. Mix and centrifuge, and then incubate for 10 min at room temperature. After gentle shaking, the absorbance at 450 nm wavelength was determined on the SpectraMax M5 Reader, and the absorbance at 650 nm was used as a reference (i.e., 450 nm absorbance −650 nm absorbance) to calculate the suppression.

Hep3B cells = test: Human hepatoma cell Hep3B survival test (CellTiter-Glo); type: cell-based; settings: treated 72 hours, read-out: inhibitory activity on Hep3B cell proliferation IC50
Method: The Hep3B cell line of human liver cancer is derived from ATCC. Cells are supplemented with McCoy's 5A medium and additionally added fetal bovine serum (IOFBS). Cells are kept in the medium at 37° C., humidity at 95%, and carbon dioxide at 500. Hep3B cells were seeded in 96-well plates at a density of 3500 cells per well with a cell suspension volume of 90 μL per well and cultured at 37° C. in a cell culture incubator containing 500 CO2. […] The cells were then placed in a 37° C. incubator and treated with compounds for 72 hours.

[2] = system: human bladder cancer cells (RT4); test: Proliferation inhibition of human bladder cancer cells RT4 (CellTiter-Glo); type: cell-based; settings: RT4, 3 days
Method: as §1, §2

FGFR2 = FGFR2 (Homo sapiens, UniProt P21802); test: In vitro activity inhibition test for kinase FGFR2; type: biochemical; settings: kinase assay, 25° C.; read-out: Inhibition of separase IC50 (nM) FGFR2
FGFR1 = FGFR1 (Homo sapiens, UniProt P11362); test: In vitro activity inhibition test for kinase FGFR1
Method: (§3) In Vitro Activity Inhibition Test for Kinases FGFR1, FGFR2, FGFR3 and FGFR4
(§4) The activity of FGFR1, FGFR2, FGFR3 and FGFR4 protein kinases was determined by Caliper mobility shift assay. Perform a 4-fold gradient dilution from a working concentration of 0.2 mM in DMSO, diluting 10 concentrations. Add 2 μL of compound to 78 μL of 1× compound buffer. There were 10 points each for the negative control and the positive control. Shake the board on the rocker for 20 min. […] The final concentration of DMSO was 0.5%.

FGFR4 = FGFR4 (Homo sapiens, UniProt P22455); test: In vitro activity inhibition test for kinase FGFR4;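 also: caliper mobility shift assay of FGFR4 kinase activity, compounds tested as 10-point 4-fold dilution series with 0.5% DMSO final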
Method: as §3, §4

FGFR3 = FGFR3 (Homo sapiens, UniProt P22607); test: In vitro activity inhibition test for kinase FGFR3;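 also: FGFR3 kinase activity read by Caliper mobility shift assay, compounds run as 10-point 4-fold dilution series, final DMSO 0.5%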
FGFR3, sequence (P22607 23-806): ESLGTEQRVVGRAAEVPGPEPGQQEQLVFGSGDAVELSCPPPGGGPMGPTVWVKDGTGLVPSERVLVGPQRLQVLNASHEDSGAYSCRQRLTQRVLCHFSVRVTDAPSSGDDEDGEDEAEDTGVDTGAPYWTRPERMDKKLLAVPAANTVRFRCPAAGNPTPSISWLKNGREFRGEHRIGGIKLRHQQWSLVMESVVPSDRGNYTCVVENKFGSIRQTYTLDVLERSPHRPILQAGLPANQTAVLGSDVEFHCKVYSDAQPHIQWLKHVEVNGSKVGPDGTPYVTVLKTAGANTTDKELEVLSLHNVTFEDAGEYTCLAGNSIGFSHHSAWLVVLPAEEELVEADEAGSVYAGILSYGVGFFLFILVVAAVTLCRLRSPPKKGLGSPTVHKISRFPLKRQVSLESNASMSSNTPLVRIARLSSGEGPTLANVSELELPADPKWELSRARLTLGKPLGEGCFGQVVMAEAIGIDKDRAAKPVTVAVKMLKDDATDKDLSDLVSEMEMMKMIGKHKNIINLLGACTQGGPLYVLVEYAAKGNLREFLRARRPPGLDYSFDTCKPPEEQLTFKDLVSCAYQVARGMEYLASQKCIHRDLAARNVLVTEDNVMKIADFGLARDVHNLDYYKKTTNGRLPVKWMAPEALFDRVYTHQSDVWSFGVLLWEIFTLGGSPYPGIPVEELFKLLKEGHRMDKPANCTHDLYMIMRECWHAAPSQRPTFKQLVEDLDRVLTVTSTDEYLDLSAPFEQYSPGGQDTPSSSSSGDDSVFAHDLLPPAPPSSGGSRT
Method: as §3, §4

FGFR1, sequence (P11362 22-822): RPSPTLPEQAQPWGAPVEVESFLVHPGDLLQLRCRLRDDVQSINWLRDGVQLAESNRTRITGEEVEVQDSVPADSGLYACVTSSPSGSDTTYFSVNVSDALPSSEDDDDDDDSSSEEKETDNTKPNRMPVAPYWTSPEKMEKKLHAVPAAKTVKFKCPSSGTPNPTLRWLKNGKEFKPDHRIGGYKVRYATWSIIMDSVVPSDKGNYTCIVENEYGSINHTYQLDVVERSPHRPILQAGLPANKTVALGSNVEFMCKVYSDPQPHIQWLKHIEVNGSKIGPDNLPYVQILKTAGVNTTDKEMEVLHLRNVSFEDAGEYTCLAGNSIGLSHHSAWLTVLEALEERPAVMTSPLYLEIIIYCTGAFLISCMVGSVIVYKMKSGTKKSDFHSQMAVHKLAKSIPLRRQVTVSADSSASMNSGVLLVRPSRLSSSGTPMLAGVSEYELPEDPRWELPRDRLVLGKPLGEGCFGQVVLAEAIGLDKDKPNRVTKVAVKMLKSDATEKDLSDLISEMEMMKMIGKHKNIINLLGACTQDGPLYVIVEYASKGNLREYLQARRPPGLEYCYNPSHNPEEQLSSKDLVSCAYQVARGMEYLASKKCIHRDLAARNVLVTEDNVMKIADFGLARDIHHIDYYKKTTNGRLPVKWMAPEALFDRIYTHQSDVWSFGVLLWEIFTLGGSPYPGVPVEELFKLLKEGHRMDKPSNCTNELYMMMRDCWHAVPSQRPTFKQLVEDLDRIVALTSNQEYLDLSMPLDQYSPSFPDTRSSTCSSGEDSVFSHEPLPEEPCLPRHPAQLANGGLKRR
FGFR4, sequence (P22455 22-802): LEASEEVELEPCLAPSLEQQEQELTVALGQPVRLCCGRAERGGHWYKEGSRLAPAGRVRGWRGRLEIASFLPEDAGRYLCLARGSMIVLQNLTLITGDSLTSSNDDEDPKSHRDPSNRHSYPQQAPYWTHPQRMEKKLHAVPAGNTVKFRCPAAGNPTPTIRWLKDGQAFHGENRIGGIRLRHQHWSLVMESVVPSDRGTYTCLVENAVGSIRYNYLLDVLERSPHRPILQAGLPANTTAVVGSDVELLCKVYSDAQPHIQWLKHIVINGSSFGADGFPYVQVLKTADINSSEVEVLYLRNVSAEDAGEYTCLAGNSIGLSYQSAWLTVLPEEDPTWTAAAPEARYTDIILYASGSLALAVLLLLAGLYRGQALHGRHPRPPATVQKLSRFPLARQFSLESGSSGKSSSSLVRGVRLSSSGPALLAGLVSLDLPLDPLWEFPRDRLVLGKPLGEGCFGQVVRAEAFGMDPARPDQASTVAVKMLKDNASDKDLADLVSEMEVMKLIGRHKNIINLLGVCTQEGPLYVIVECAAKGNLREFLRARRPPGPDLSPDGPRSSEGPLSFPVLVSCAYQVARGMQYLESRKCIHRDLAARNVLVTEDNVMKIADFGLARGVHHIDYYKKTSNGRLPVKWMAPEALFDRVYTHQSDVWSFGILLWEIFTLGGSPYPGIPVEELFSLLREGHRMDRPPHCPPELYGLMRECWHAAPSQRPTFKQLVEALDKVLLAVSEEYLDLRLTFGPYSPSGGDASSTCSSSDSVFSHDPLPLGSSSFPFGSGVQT
FGFR2, sequence (P21802 22-821): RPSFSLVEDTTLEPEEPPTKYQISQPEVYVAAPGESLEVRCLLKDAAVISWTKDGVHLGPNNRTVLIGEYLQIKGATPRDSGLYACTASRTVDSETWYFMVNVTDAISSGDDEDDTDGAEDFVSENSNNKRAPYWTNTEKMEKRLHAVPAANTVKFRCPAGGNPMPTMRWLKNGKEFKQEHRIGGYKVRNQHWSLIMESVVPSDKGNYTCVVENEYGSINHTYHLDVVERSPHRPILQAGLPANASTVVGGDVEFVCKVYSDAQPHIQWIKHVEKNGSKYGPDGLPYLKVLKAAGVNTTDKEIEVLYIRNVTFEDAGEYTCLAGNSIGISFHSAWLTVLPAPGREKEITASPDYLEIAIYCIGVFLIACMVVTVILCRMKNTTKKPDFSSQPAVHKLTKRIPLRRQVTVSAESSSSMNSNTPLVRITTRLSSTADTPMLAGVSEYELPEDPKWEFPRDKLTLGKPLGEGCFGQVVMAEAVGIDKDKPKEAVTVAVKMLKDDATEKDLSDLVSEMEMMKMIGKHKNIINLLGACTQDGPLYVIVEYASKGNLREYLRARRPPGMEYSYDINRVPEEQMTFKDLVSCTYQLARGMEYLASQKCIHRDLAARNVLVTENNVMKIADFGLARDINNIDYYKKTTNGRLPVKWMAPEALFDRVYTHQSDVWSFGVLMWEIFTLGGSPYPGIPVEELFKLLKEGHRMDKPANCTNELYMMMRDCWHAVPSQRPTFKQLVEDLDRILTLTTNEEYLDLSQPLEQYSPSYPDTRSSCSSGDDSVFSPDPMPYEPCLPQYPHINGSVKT

IC50 (FGFR2) [nM] | IC50 (FGFR1) [nM] | IC50 (FGFR4) [nM] | IC50 (FGFR3) [nM] | Molecule | IC50 (Hep3B cells; Homo sapiens) [nM] | other results
 |  |  |  | CCN1CCN(c2ccc(Nc3cc(N(C)C(=O)Nc4c(Cl)c(OC)cc(OC)c4Cl)ncn3)cc2)CC1 [BGJ398, infigratinib, reference compound] | 10 to 100 | IC50 [1]: 0.572 nM; IC50 ([2]; Homo sapiens, RT-4, 72 h): 11.8 nM
 |  |  |  | COc1cc(OC)cc(N(CCNC(C)C)c2ccc3ncc(-c4cnn(C)c4)nc3c2)c1 [Erdafinib] |  | IC50 [2]: 1.8 nM
< 10 | < 10 | < 10 | < 10 | C=CC(=O)N1CCC[C@H](n2cc(C#Cc3cc(OC)cc(OC)c3)c3c(N)n[nH]c(=O)c32)C1 [Compound 20, (S)-1-(1-acryloylpiperidin-3-yl)-4-amino-3-((3,5-dimethoxyphenyl)ethynyl)-1,6-dihydro-7H-pyrrolo[2,3-d]pyridazin-7-one] | < 10 | 
< 10 | < 10 | < 10 | < 10 | C=CC(=O)N1CCC[C@H](n2nc(C#Cc3cc(OC)cc(OC)c3)c3c(N)n[nH]c(=O)c32)C1 [Compound 24, (S)-1-(1-acryloylpiperidin-3-yl)-4-amino-3-((3,5-dimethoxyphenyl)ethynyl)-1,6-dihydro-7H-pyrazolo[3,4-d]pyridazin-7-one] | < 10 | 
 |  |  |  | CCN1C(=O)N(c2c(F)c(OC)cc(OC)c2F)Cc2cnc3[nH]c(CN4CCOCC4)cc3c21 [Pemigatinib, reference compound] | 10 to 100 | IC50 [1]: 0.249 nM; IC50 ([2]; Homo sapiens, RT-4, 72 h): 6 nM
< 10 | < 10 | < 10 | < 10 | C=CC(=O)N1CC[C@H](n2cc(C#Cc3cc(OC)cc(OC)c3)c3c(N)n[nH]c(=O)c32)C1 [Compound 22, (S)-1-(1-acryloylpyrrolidin-3-yl)-4-amino-3-((3,5-dimethoxyphenyl)ethynyl)-1,6-dihydro-7H-pyrrolo[2,3-d]pyridazin-7-one] | < 10 | 
< 10 | < 10 | < 10 | < 10 | C=CC(=O)N1CC[C@H](n2nc(-c3cc4cc(C)cc(OC)c4s3)c3c(N)n[nH]c(=O)c32)C1 [Compound 36, (S)-1-(1-acryloylpyrrolidin-3-yl)-4-amino-3-(7-methoxy-5-methylbenzo[b]thiophen-2-yl)-1,6-dihydro-7H-pyrazolo[3,4-d]pyridazin-7-one] | < 10 | 
 |  |  |  | (S)-4-amino-1-(1-(but-2-ynoyl)pyrrolidin-3-yl)-3-((2,6-difluoro-3,5-dimethoxyphenyl)ethynyl)-1,6-dihydro-7H-pyrazolo[3,4-d]pyridazin-7-one [Compound 34] |  | IC50 (Hep3B cells): < 10 nM
< 10 | < 10 | < 10 | < 10 | C=CC(=O)N1CC[C@H](n2nc(C#Cc3c(Cl)c(OC)cc(OC)c3Cl)c3c(N)n[nH]c(=O)c32)C1 [Compound 30, (S)-1-(1-acryloylpyrrolidin-3-yl)-4-amino-3-((2,6-dichloro-3,5-dimethoxyphenyl)ethynyl)-1,6-dihydro-7H-pyrazolo[3,4-d]pyridazin-7-one] | < 10 | 
10 to 100 | 10 to 100 | 10 to 100 | 100 to 500 | C=CC(=O)N1CC[C@H](Nc2ncc(C#N)c(C#Cc3cc(OC)cc(OC)c3)n2)C1 [Compound 5, (S)-2-((1-acryloylpyrrolidin-3-yl)amino)-4-((3,5-dimethoxyphenyl)ethynyl)pyrimidine-5-carbonitrile] |  | 
10 to 100 | 100 to 500 | 100 to 500 | 10 to 100 | C=CC(=O)N1CCC2(CC1)CC(Nc1nc(N)c(C(N)=O)c(C#Cc3cc(OC)cc(OC)c3)n1)C2 [Compound 9, 2-((7-acryloyl-7-azaspiro[3.5]nonan-2-yl)amino)-4-amino-6-((3,5-dimethoxyphenyl)ethynyl)pyrimidine-5-carboxamide] |  | 
10 to 100 | 10 to 100 | 10 to 100 | 10 to 100 | C=CC(=O)N1CC[C@H](Nc2ncc(F)c(C#Cc3cc(OC)cc(OC)c3)n2)C1 [Compound 3, (S)-1-(3-((4-((3,5-dimethoxyphenyl)ethynyl)-5-fluoropyrimidin-2-yl)amino)pyrrolidin-1-yl)prop-2-en-1-one] |  | 
< 10 | < 10 | < 10 | < 10 | C=CC(=O)N1CC[C@H](n2nc(C#Cc3cc(OC)cc(OC)c3)c3c(N)n[nH]c(=O)c32)C1 [Compound 26, (S)-1-(1-acryloylpyrrolidin-3-yl)-4-amino-3-((3,5-dimethoxyphenyl)ethynyl)-1,6-dihydro-7H-pyrazolo[3,4-d]pyridazin-7-one] | < 10 | 
< 10 |  |  |  | 2-(1-acryloylpyrrolidin-3-yl)-4-((3,5-dimethoxyphenyl)ethynyl)pyrimidine-5-carboxamide [Compound 19] |  | IC50 (FGFR1; read-out: Inhibition of FGFR1 IC50 (nM) FGFR1, kinase assay, 25° C.): < 10 nM; IC50 (FGFR4; read-out: Inhibition of kinase IC50 (nM) FGFR4, kinase assay, 25° C.): < 10 nM; IC50 (FGFR3; read-out: Inhibition IC50 (nM) FGFR3, kinase assay, 25° C.): < 10 nM
